Measured values: patent publication US6403343B2, “Method of producing a taxane-type diterpene and a method of obtaining cultured cells which produce the taxane-type dilterpene at a high rate” (Mitsui Chemicals, Inc., priority 1993, dated 2002)

Key:
Type in all cases: cell-based
[1] = system: cultured cells of Taxus baccata LINN, layer of 1.07 g/ml or less; experiment: Same culture using cells of the specific gravity layer of 1.07 g/ml or less (Ficoll), jasmonic acids added; conditions: 250 μM added on 14th day, 7 more days; cells of layer of 1.07 g/ml or less
Method: (§1) The cells with accelerated growth rate obtained by the method of Example 1 were fractionated firstly by a stainless steel mesh and cell clusters having the size of 250-840 μm were obtained. A medium having a specific gravity of 1.07 (g/ml) was produced by the use of Ficoll and the above-mentioned cells were layered over it and centrifuged at 700 rpm for 6 minutes. The cells were fractionated into two layers according to the difference of the specific gravity. The cells contained in the layer of 1.07 g/ml or less were fractionated and washed with 2% sucrose solution three times or more, to wash off Ficoll. After the washing, 1 g (fresh weight) of the cells was transferred to an Erlenmeyer flask containing 20 ml of liquid Woody Plant Medium and shake culture was carried out at 25° C. for 14 days. […] After completing the culture, the procedure of Example 1 was carried out.
as §1, with “growth rates” for “growth rate”, “Example 8” for “Example 1”, “was inoculated” for “was transferred”
as §1, with “Example 15” for “Example 1”, “was inoculated” for “was transferred”

[2] = system: cultured cells of T. media; experiment: Taxane yield, T. media cultured cells with jasmonic acids added; conditions: 250 μM added on 14th day, 7 more days
Method: The procedure of Example 6 was carried out except that cultured cells of T. media were used.
The procedure of Example 13 was carried out except that cultured cells of T. media were used.
The procedure of Example 22 was carried out except that cultured cells of T. media were used.

[3] = system: cultured cells of Taxus baccata LINN; experiment: Taxane-type diterpene yield and cell yield, shake culture of Taxus baccata cells with a jasmonic acid (or jasmone) added
[4] = system: cultured cells of Taxus brevifolia NUTT; experiment: Taxane yield, Taxus brevifolia cultured cells with jasmonic acids added; conditions: 250 μM added on 14th day, 7 more days
Method: After completing the culture, the procedure of Example 1 was carried out.
After completing the culture, the procedure of Example 8 was carried out.
After completing the culture, the procedure of Example 15 was carried out.

[5] = system: cultured cells of Taxus baccata LINN; experiment: Two-stage culture: first stage with potassium peroxodisulfate, second stage with methyl jasmonate; cell yield and taxol yield; conditions: for yield of cells, second stage of the culture / yield of taxol, second stage of the culture: second stage with methyl jasmonate 100 μM on the 14th day; for content of taxol, first stage of the culture / yield of cells, first stage of the culture: added 1st day
Method: After completing the culture, the cultured cells were harvested by filtration and a part of the cells were used as seed cells for the second stage of the culture and the rest of the cells were subjected to the measurement of the cell yield and the taxane content in the cells. Accordingly, 1 g (fresh weight) of the cultured cells were inoculated to an Erlenmeyer flask containing 20 ml of liquid Woody Plant Medium to which naphthalenacetic acid had been added to give the concentration of 10^−5M and shake culture was carried out at 25° C. for 14 days. On the 14th day of the culture, methyl jasmonate was added to the medium to give the concentration in the medium of 100 μM and the culture was further continued for another 7 days. On the other hand, the rest of the cells obtained in the first stage of the culture were lyophilized, then the dry weight was measured to obtain the cell yield thereof per liter of the liquid medium. The content of taxol in the dried cells was measured by high performance liquid chromatography. The yield of the cells and the yield of taxol were measured for the cells obtained by second stage of the culture in the same manner as that for the cells obtained in the first stage of the culture.

[6] = system: cultured cells of Taxus baccata LINN; experiment: Growth rate and taxane yield, shake culture under controlled oxygen concentration in the gas phase, with or without methyl jasmonate; conditions: max oxygen in gas phase 10%; for yield of baccatin III / yield of cephalomannine / yield of taxol: cell + medium
Method: One gram (fresh weight) of the callus was inoculated to an Erlenmeyer flask containing 20 ml of liquid Woody Plant Medium to which the above-mentioned component had been added to give the same concentration and shake culture was carried out with a rotary shaker (amplification of 25 mm, 100 rpm) and the callus was subcultured in every 21 days to accelerate the growth rate of the callus.
One gram (fresh weight) of the cultured cells thus obtained was inoculated to an Erlenmeyer flask containing 20 ml of liquid Woody Plant Medium to which the above-mentioned component had been added to give the same concentration, and the flask was placed in a chamber (the capacity of 3000 ml) having a gas feed opening and a gas discharge opening, then the chamber was closed hermetically, and air was so mixed with nitrogen that the concentration of the oxygen in a gas to be supplied to the cells to be cultured became 4-15%, and while the gas was supplied through the feed opening at the rate of 25 ml per minute, shake culture was carried out at 25° C. for 21 days.
After completing the culture, cultured cells of Taxus baccata LINN were harvested by filtration and lyophilized, then the dry weight was measured to obtain the growth rate thereof. Taxane-type diterpenes were extracted from the dried cells with methanol and the like, and they were determined by comparing with standard taxol, cephalomannine, and baccatin III using high performance liquid chromatography to measure the yields of the taxane-type diterpenes.

[7] = 0.01 μM added on 14th day, 7 more days
[8] = 0.1 μM added on 14th day, 7 more days
[9] = 1 μM added on 14th day, 7 more days
[10] = 10 μM added on 14th day, 7 more days
[11] = 25 μM added 4 times every two days from 7th day, total 100 μM
[12] = 100 μM added on 7th day, 14 more days
[13] = 100 μM added on 14th day, 7 more days
[14] = 100 μM added on first day, 20 more days
[15] = 250 μM added on 14th day, 7 more days
[16] = 500 μM added on 14th day, 7 more days
[17] = 1000 μM added on 14th day, 7 more days
[18] = first stage with potassium peroxodisulfate 5 × 10^−3M
[19] = first stage with potassium peroxodisulfate 5 × 10^−4M
[20] = first stage with potassium peroxodisulfate 10^−3M
[21] = first stage with potassium peroxodisulfate 10^−4M
[22] = first stage with potassium peroxodisulfate 10^−5M
[23] = potassium peroxodisulfate 5 × 10^−3M in the medium
[24] = potassium peroxodisulfate 5 × 10^−4M in the medium
[25] = potassium peroxodisulfate 10^−3M in the medium
[26] = potassium peroxodisulfate 10^−4M in the medium
[27] = potassium peroxodisulfate 10^−5M in the medium
[28] = 50 μM added on 14th day, 7 more days

COC(=O)C[C@H]1CCC(=O)[C@H]1C/C=C\CCO [methyl tuberonate]
cell yield [1]: 12.2 g/L | yield of baccatin III [1]: 17.4 mg/L | yield of cephalomannine [1]: 3.1 mg/L | yield of taxol [1]: 28.3 mg/L | cell yield [2]: 9.5 g/L | yield of baccatin III [2]: 10.4 mg/L | yield of cephalomannine [2]: 0.5 mg/L | yield of taxol [2]: 5.4 mg/L | cell yield [3, 7]: 14.3 g/L | yield of baccatin III [3, 7]: 0.4 mg/L | yield of cephalomannine [3, 7]: 1.3 mg/L | yield of taxol [3, 7]: 4.6 mg/L | cell yield [3, 8]: 13.5 g/L | yield of baccatin III [3, 8]: 0.5 mg/L | yield of cephalomannine [3, 8]: 1.5 mg/L | yield of taxol [3, 8]: 5.5 mg/L | cell yield [3, 9]: 13.2 g/L | yield of baccatin III [3, 9]: 0.7 mg/L | yield of cephalomannine [3, 9]: 1.8 mg/L | yield of taxol [3, 9]: 6.9 mg/L | cell yield [3, 10]: 13.0 g/L | yield of baccatin III [3, 10]: 0.9 mg/L | yield of cephalomannine [3, 10]: 2.2 mg/L | yield of taxol [3, 10]: 14.8 mg/L | cell yield [3, 11]: 12.9 g/L | yield of baccatin III [3, 11]: 13.5 mg/L | yield of cephalomannine [3, 11]: 2.3 mg/L | yield of taxol [3, 11]: 22.5 mg/L | cell yield [3, 12]: 12.5 g/L | yield of baccatin III [3, 12]: 10.5 mg/L | yield of cephalomannine [3, 12]: 2.1 mg/L | yield of taxol [3, 12]: 15.6 mg/L | cell yield [3, 13]: 12.7 g/L | yield of baccatin III [3, 13]: 12.2 mg/L | yield of cephalomannine [3, 13]: 2.4 mg/L | yield of taxol [3, 13]: 16.5 mg/L | cell yield [3, 14]: 7.1 g/L | yield of baccatin III [3, 14]: 1.0 mg/L | yield of cephalomannine [3, 14]: 1.3 mg/L | yield of taxol [3, 14]: 4.0 mg/L | cell yield [3, 15]: 12.5 g/L | yield of baccatin III [3, 15]: 14.5 mg/L | yield of cephalomannine [3, 15]: 2.2 mg/L | yield of taxol [3, 15]: 21.1 mg/L | cell yield [3, 16]: 11.6 g/L | yield of baccatin III [3, 16]: 15.0 mg/L | yield of cephalomannine [3, 16]: 2.3 mg/L | yield of taxol [3, 16]: 10.6 mg/L | cell yield [3, 17]: 7.5 g/L | yield of baccatin III [3, 17]: 1.2 mg/L | yield of cephalomannine [3, 17]: 1.8 mg/L | yield of taxol [3, 17]: 3.9 mg/L | cell yield [4]: 10.0 g/L | yield of baccatin III [4]: 1.4 mg/L | yield of cephalomannine [4]: 0.5 mg/L | yield of taxol [4]: 3.3 mg/L

O=S(=O)([O-])OOS(=O)(=O)[O-].[K+].[K+] [Example 77]
yield of cells, second stage of the culture [5, 18]: 12.1 g/L | yield of taxol, second stage of the culture [5, 18]: 11.7 ppm | yield of cells, second stage of the culture [5, 19]: 14.4 g/L | yield of taxol, second stage of the culture [5, 19]: 16.3 ppm | yield of cells, second stage of the culture [5, 20]: 13.0 g/L | yield of taxol, second stage of the culture [5, 20]: 13.6 ppm | yield of cells, second stage of the culture [5, 21]: 15.0 g/L | yield of taxol, second stage of the culture [5, 21]: 20.4 ppm | yield of cells, second stage of the culture [5, 22]: 15.6 g/L | yield of taxol, second stage of the culture [5, 22]: 14.0 ppm | content of taxol, first stage of the culture [5, 23]: 45 ppm | yield of cells, first stage of the culture [5, 23]: 14.0 g/L | content of taxol, first stage of the culture [5, 24]: 183 ppm | yield of cells, first stage of the culture [5, 24]: 15.5 g/L | content of taxol, first stage of the culture [5, 25]: 84 ppm | yield of cells, first stage of the culture [5, 25]: 15.2 g/L | content of taxol, first stage of the culture [5, 26]: 250 ppm | yield of cells, first stage of the culture [5, 26]: 16.2 g/L | content of taxol, first stage of the culture [5, 27]: 97 ppm | yield of cells, first stage of the culture [5, 27]: 17.1 g/L

CC/C=C\C[C@H]1C(=O)CC[C@@H]1CC(=O)O [jasmonic acid]
cell yield [3, 7]: 12.2 g/L | yield of baccatin III [3, 7]: 0.3 mg/L | yield of cephalomannine [3, 7]: 0.6 mg/L | yield of taxol [3, 7]: 2.2 mg/L | cell yield [3, 8]: 12.2 g/L | yield of baccatin III [3, 8]: 0.3 mg/L | yield of cephalomannine [3, 8]: 0.6 mg/L | yield of taxol [3, 8]: 3.4 mg/L | cell yield [3, 9]: 11.6 g/L | yield of baccatin III [3, 9]: 0.3 mg/L | yield of cephalomannine [3, 9]: 0.8 mg/L | yield of taxol [3, 9]: 5.9 mg/L | cell yield [3, 10]: 11.5 g/L | yield of baccatin III [3, 10]: 0.5 mg/L | yield of cephalomannine [3, 10]: 2.6 mg/L | yield of taxol [3, 10]: 8.3 mg/L | cell yield [3, 28]: 11.4 g/L | yield of baccatin III [3, 28]: 2.5 mg/L | yield of cephalomannine [3, 28]: 2.2 mg/L | yield of taxol [3, 28]: 10.2 mg/L | cell yield [3, 13]: 10.3 g/L | yield of baccatin III [3, 13]: 7.2 mg/L | yield of cephalomannine [3, 13]: 3.0 mg/L | yield of taxol [3, 13]: 12.8 mg/L | cell yield [3, 15]: 10.1 g/L | yield of baccatin III [3, 15]: 10.6 mg/L | yield of cephalomannine [3, 15]: 2.7 mg/L | yield of taxol [3, 15]: 14.7 mg/L | cell yield [3, 16]: 10.2 g/L | yield of baccatin III [3, 16]: 12.0 mg/L | yield of cephalomannine [3, 16]: 1.1 mg/L | yield of taxol [3, 16]: 11.1 mg/L | cell yield [3, 17]: 6.7 g/L | yield of baccatin III [3, 17]: 1.2 mg/L | yield of cephalomannine [3, 17]: 0.5 mg/L | yield of taxol [3, 17]: 1.2 mg/L

CCC=CCC1C(=O)CCC1CC(=O)OC (stereo not shown) [Example 66]
growth rate ([6]; methyl jasmonate 10 μM): 2.82 times | total yield of taxane ([6]; methyl jasmonate 10 μM): 14.73 mg/L | yield of baccatin III ([6]; methyl jasmonate 10 μM): 2.26 mg/L | yield of cephalomannine ([6]; methyl jasmonate 10 μM): 1.73 mg/L | yield of taxol ([6]; methyl jasmonate 10 μM): 10.24 mg/L | growth rate ([6]; methyl jasmonate 100 μM): 2.45 times | total yield of taxane ([6]; methyl jasmonate 100 μM): 36.05 mg/L | yield of baccatin III ([6]; methyl jasmonate 100 μM): 11.32 mg/L | yield of cephalomannine ([6]; methyl jasmonate 100 μM): 2.29 mg/L | yield of taxol ([6]; methyl jasmonate 100 μM): 22.44 mg/L | growth rate ([6]; methyl jasmonate 1000 μM): 1.47 times | total yield of taxane ([6]; methyl jasmonate 1000 μM): 8.61 mg/L | yield of baccatin III ([6]; methyl jasmonate 1000 μM): 2.10 mg/L | yield of cephalomannine ([6]; methyl jasmonate 1000 μM): 1.47 mg/L | yield of taxol ([6]; methyl jasmonate 1000 μM): 5.04 mg/L
